This is an account of results in patent publication US11173151B2, “Substituted triazole derivatives and uses thereof” (BAYER AKTIENGESELLSCHAFT, priority 2017, dated 2021).

SMILES strings stand for the structures. pIC50: −log10 of the molar value.

The target of test [1] is T1, human V1a receptor (Homo sapiens, UniProt P37288).
T1 construct: expressed in transfected cells; host or cells: CHO K1 (ATCC), also stably transfected with a modified aequorin
The experiment in a line: Cellular in vitro assay for determining vasopressin receptor activity, V1a receptor cell line (CHO, aequorin luminescence). Format: cell-based. Particulars: for pIC50: CHO cell line transfected with human V1a receptor, [Arg]-vasopressin at EC50 concentration, read-out: IC50 hV1a; for ratio IC50 hV2/hV1a: selectivity ratio IC50 hV2 / IC50 hV1a. The method, boiled down:
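CHO K1/aequorin cells, coelenterazine 5 μg/ml o/n; cpd 10 min; [Arg]-vasopressin at EC50; luminescence read immediately; IC50.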

The target in test [2] is T2, human V2 receptor (Homo sapiens, UniProt P30518).
T2 construct: expressed in transfected cells; host or cells: CHO K1 (ATCC) expressing firefly luciferase under a CRE-responsive promoter
The experiment in a line: Cellular in vitro assay for determining vasopressin receptor activity, V2 receptor cell line (CHO, CRE-luciferase). The format is cell-based. Particulars: CHO cell line transfected with human V2 receptor; [Arg8]-vasopressin at EC50 concentration, 3 hours; read-out: IC50 hV2.

T1 sequence (P37288 whole entry): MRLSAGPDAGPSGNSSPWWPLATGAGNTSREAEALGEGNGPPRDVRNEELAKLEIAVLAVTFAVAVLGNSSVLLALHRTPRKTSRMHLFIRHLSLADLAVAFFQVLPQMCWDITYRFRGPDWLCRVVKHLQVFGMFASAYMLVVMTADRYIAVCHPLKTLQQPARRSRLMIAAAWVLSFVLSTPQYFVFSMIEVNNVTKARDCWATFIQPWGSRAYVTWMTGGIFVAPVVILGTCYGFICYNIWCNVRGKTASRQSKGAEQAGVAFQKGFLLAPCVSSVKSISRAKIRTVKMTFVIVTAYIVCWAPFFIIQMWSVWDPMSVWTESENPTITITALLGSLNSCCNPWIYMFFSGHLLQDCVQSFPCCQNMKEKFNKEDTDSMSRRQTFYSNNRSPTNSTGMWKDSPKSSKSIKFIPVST
T2 sequence (P30518 whole entry): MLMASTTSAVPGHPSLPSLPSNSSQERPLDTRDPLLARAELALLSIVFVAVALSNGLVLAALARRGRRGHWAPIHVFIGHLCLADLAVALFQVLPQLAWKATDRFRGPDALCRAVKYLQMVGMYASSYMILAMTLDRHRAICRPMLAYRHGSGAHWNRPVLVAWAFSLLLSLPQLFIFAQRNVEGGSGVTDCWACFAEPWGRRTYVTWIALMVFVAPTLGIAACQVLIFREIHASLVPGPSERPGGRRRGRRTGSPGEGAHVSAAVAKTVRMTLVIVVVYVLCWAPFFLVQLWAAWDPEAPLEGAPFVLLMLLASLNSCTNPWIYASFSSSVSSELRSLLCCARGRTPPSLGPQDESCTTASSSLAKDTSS

Usually pIC50 stands for −log10 of the IC50, conventionally taken in molar units. In the case of `CNC(=O)c1ccccc1-n1cnc(Cn2nc(-c3ccc(Cl)cc3)n(C[C@H](O)C(F)(F)F)c2=O)n1` [Example 169, 2-[3-({3-(4-Chlorophenyl)-5-oxo-4-[(2S)-3,3,3-trifluoro-2-hydroxypropyl]-4,5-dihydro-1H-1,2,4-triazol-1-yl}methyl)-1H-1,2,4-triazol-1-yl]-N-methylbenzamide], the results for the pIC50 in test [1] and in test [2] were 8.63 and 6.55, respectively. The “ratio IC50 hV2/hV1a” value in test [1] was 118.5.

Consider `O=C1CN(C(=O)c2ccccc2-n2cnc(Cn3nc(-c4ccc(Cl)cc4)n(C[C@H](O)C(F)(F)F)c3=O)n2)CCN1` [Example 171, 4-{2-[3-({3-(4-Chlorophenyl)-5-oxo-4-[(2S)-3,3,3-trifluoro-2-hydroxypropyl]-4,5-dihydro-1H-1,2,4-triazol-1-yl}methyl)-1H-1,2,4-triazol-1-yl]benzoyl}piperazin-2-one], for which, in test [1], the pIC50 is 6.86 and the “ratio IC50 hV2/hV1a” value stood at 52.8. Further, the negative-log IC50 (pIC50) in test [2] was 5.13.

Consider `O=C(c1ccccc1-n1cnc(Cn2nc(-c3ccc(Cl)cc3)n(C[C@H](O)C(F)(F)F)c2=O)n1)N1CCOCC1` [Example 172, 5-(4-Chlorophenyl)-2-({1-[2-(morpholin-4-ylcarbonyl)phenyl]-1H-1,2,4-triazol-3-yl}methyl)-4-[(2S)-3,3,3-trifluoro-2-hydroxypropyl]-2,4-dihydro-3H-1,2,4-triazol-3-one], for which the pIC50 was 8.49 in test [1] and 5.67 in test [2].

On to `CC(C)(N)CNC(=O)c1ccccc1-n1cnc(Cn2nc(-c3ccc(Cl)cc3)n(C[C@H](O)C(F)(F)F)c2=O)n1` [Example 173, N-(2-Amino-2-methylpropyl)-2-[3-({3-(4-chlorophenyl)-5-oxo-4-[(2S)-3,3,3-trifluoro-2-hydroxypropyl]-4,5-dihydro-1H-1,2,4-triazol-1-yl}methyl)-1H-1,2,4-triazol-1-yl]benzamide], for which, in test [1], the pIC50 was 8.37 and the “ratio IC50 hV2/hV1a” value was 608.2. Further, the pIC50 in test [2] was 5.58.

`O=C(NCC(F)(F)F)c1ccccc1-n1cnc(Cn2nc(-c3ccc(Cl)cc3)n(C[C@H](O)C(F)(F)F)c2=O)n1` [Example 174, 2-[3-({3-(4-Chlorophenyl)-5-oxo-4-[(2S)-3,3,3-trifluoro-2-hydroxypropyl]-4,5-dihydro-1H-1,2,4-triazol-1-yl}methyl)-1H-1,2,4-triazol-1-yl]-N-(2,2,2-trifluoroethyl)benzamide]: in test [1], the negative-log IC50 (pIC50) is 8.30 and the “ratio IC50 hV2/hV1a” value is given as 51.4. Besides, in test [2], the pIC50 was 6.59.

Turning to `O=C(c1ccccc1-n1cnc(Cn2nc(-c3ccc(Cl)cc3)n(C[C@H](O)C(F)(F)F)c2=O)n1)N1CCC(F)(F)CC1` [Example 175, 5-(4-Chlorophenyl)-2-[(1-{2-[(4,4-difluoropiperidin-1-yl)carbonyl]phenyl}-1H-1,2,4-triazol-3-yl)methyl]-4-[(2S)-3,3,3-trifluoro-2-hydroxypropyl]-2,4-dihydro-3H-1,2,4-triazol-3-one], in test [1], the pIC50 was 7.99 and the “ratio IC50 hV2/hV1a” value is on record as 150.7. Further, the negative logarithm of the IC50 (pIC50) in test [2] was 5.81.

On to `O=C(NC1CS(=O)(=O)C1)c1ccccc1-n1cnc(Cn2nc(-c3ccc(Cl)cc3)n(C[C@H](O)C(F)(F)F)c2=O)n1` [Example 176, 2-[3-({3-(4-Chlorophenyl)-5-oxo-4-[(2S)-3,3,3-trifluoro-2-hydroxypropyl]-4,5-dihydro-1H-1,2,4-triazol-1-yl}methyl)-1H-1,2,4-triazol-1-yl]-N-(1,1-dioxidothietan-3-yl)benzamide], for which, in test [1], the negative logarithm of the IC50 (pIC50) is 7.82 and the “ratio IC50 hV2/hV1a” value is given as 83.3. Moreover, the pIC50 in test [2] was 5.90.

Consider `O=C(NCCN1CCCC1=O)c1ccccc1-n1cnc(Cn2nc(-c3ccc(Cl)cc3)n(C[C@H](O)C(F)(F)F)c2=O)n1` [Example 177, 2-[3-({3-(4-Chlorophenyl)-5-oxo-4-[(2S)-3,3,3-trifluoro-2-hydroxypropyl]-4,5-dihydro-1H-1,2,4-triazol-1-yl}methyl)-1H-1,2,4-triazol-1-yl]-N-[2-(2-oxopyrrolidin-1-yl)ethyl]benzamide], for which, in test [1], the pIC50 is 8.00 and the “ratio IC50 hV2/hV1a” value is 69.7. Besides, the pIC50 in test [2] is 6.16.

In the case of `O=C1CC[C@@H](CNC(=O)c2ccccc2-n2cnc(Cn3nc(-c4ccc(Cl)cc4)n(C[C@H](O)C(F)(F)F)c3=O)n2)N1` [Example 178, 2-[3-({3-(4-Chlorophenyl)-5-oxo-4-[(2S)-3,3,3-trifluoro-2-hydroxypropyl]-4,5-dihydro-1H-1,2,4-triazol-1-yl}methyl)-1H-1,2,4-triazol-1-yl]-N-{[(2S)-5-oxopyrrolidin-2-yl]methyl}benzamide], in test [1], the negative-log IC50 (pIC50) was 7.73 and the “ratio IC50 hV2/hV1a” value amounted to 97.3. For the same molecule, in test [2], the pIC50 is 5.74.

Consider `O=C1CC[C@H](CNC(=O)c2ccccc2-n2cnc(Cn3nc(-c4ccc(Cl)cc4)n(C[C@H](O)C(F)(F)F)c3=O)n2)N1` [Example 179, 2-[3-({3-(4-Chlorophenyl)-5-oxo-4-[(2S)-3,3,3-trifluoro-2-hydroxypropyl]-4,5-dihydro-1H-1,2,4-triazol-1-yl}methyl)-1H-1,2,4-triazol-1-yl]-N-{[(2R)-5-oxopyrrolidin-2-yl]methyl}benzamide], for which, in test [1], the negative logarithm of the IC50 (pIC50) was 8.21 and the “ratio IC50 hV2/hV1a” value is 278.7. In addition, the negative-log IC50 (pIC50) in test [2] is 5.77.

In the case of `CC(=O)N[C@H]1CCN(C(=O)c2ccccc2-n2cnc(Cn3nc(-c4ccc(Cl)cc4)n(C[C@H](O)C(F)(F)F)c3=O)n2)C1` [Example 180, N-[(3S)-1-{2-[3-({3-(4-Chlorophenyl)-5-oxo-4-[(2S)-3,3,3-trifluoro-2-hydroxypropyl]-4,5-dihydro-1H-1,2,4-triazol-1-yl}methyl)-1H-1,2,4-triazol-1-yl]benzoyl}pyrrolidin-3-yl]acetamide], in test [1], the negative-log IC50 (pIC50) was 7.17 and the “ratio IC50 hV2/hV1a” value turned out to be 43.4. For the same molecule, in test [2], the negative logarithm of the IC50 (pIC50) is 5.53.

Turning to `CC1(C)CN(C(=O)c2ccccc2-n2cnc(Cn3nc(-c4ccc(Cl)cc4)n(C[C@H](O)C(F)(F)F)c3=O)n2)CCN1` [Example 181, 5-(4-Chlorophenyl)-2-[(1-{2-[(3,3-dimethylpiperazin-1-yl)carbonyl]phenyl}-1H-1,2,4-triazol-3-yl)methyl]-4-[(2S)-3,3,3-trifluoro-2-hydroxypropyl]-2,4-dihydro-3H-1,2,4-triazol-3-one], the values for the pIC50 in test [1] and in test [2] were 6.71 and 4.73, respectively.

In the case of `O=C(NCCC(F)(F)F)c1ccccc1-n1cnc(Cn2nc(-c3ccc(Cl)cc3)n(C[C@H](O)C(F)(F)F)c2=O)n1` [Example 182, 2-[3-({3-(4-Chlorophenyl)-5-oxo-4-[(2S)-3,3,3-trifluoro-2-hydroxypropyl]-4,5-dihydro-1H-1,2,4-triazol-1-yl}methyl)-1H-1,2,4-triazol-1-yl]-N-(3,3,3-trifluoropropyl)benzamide], in test [1], the pIC50 is 7.62 and the “ratio IC50 hV2/hV1a” value was determined as 85.4. In addition, the pIC50 in test [2] was 5.69.

In the case of `O=C(NCC1CS(=O)(=O)C1)c1ccccc1-n1cnc(Cn2nc(-c3ccc(Cl)cc3)n(C[C@H](O)C(F)(F)F)c2=O)n1` [Example 184, 2-[3-({3-(4-Chlorophenyl)-5-oxo-4-[(2S)-3,3,3-trifluoro-2-hydroxypropyl]-4,5-dihydro-1H-1,2,4-triazol-1-yl}methyl)-1H-1,2,4-triazol-1-yl]-N-[(1,1-dioxidothietan-3-yl)methyl]benzamide], the pIC50 in test [1] is 7.55; in test [2], 5.51. Further, the “ratio IC50 hV2/hV1a” value in test [1] is reported as 108.8.

On to `O=C(NCCN1CCNC1=O)c1ccccc1-n1cnc(Cn2nc(-c3ccc(Cl)cc3)n(C[C@H](O)C(F)(F)F)c2=O)n1` [Example 185, 2-[3-({3-(4-Chlorophenyl)-5-oxo-4-[(2S)-3,3,3-trifluoro-2-hydroxypropyl]-4,5-dihydro-1H-1,2,4-triazol-1-yl}methyl)-1H-1,2,4-triazol-1-yl]-N-[2-(2-oxoimidazolidin-1-yl)ethyl]benzamide], for which, in test [1], the pIC50 is 8.05 and the “ratio IC50 hV2/hV1a” value came to 199.4. In test [2], the pIC50 is 5.75.

Regarding `CC(C)(N)CNC(=O)c1cc(Cl)ccc1-n1cnc(Cn2nc(-c3ccc(Cl)cc3)n(C[C@H](O)C(F)(F)F)c2=O)n1` [Example 186, N-(2-Amino-2-methylpropyl)-5-chloro-2-[3-({3-(4-chlorophenyl)-5-oxo-4-[(2S)-3,3,3-trifluoro-2-hydroxypropyl]-4,5-dihydro-1H-1,2,4-triazol-1-yl}methyl)-1H-1,2,4-triazol-1-yl]benzamide], in test [1], the pIC50 was 8.28 and the “ratio IC50 hV2/hV1a” value is on record as 46.2. Besides, in test [2], the pIC50 is 6.62.

For `CNC(=O)c1cc(Cl)ccc1-n1cnc(Cn2nc(-c3ccc(Cl)cc3)n(C[C@H](O)C(F)(F)F)c2=O)n1` [Example 187, 5-chloro-2-[3-({3-(4-Chlorophenyl)-5-oxo-4-[(2S)-3,3,3-trifluoro-2-hydroxypropyl]-4,5-dihydro-1H-1,2,4-triazol-1-yl}methyl)-1H-1,2,4-triazol-1-yl]-N-methylbenzamide], in test [1], the negative logarithm of the IC50 (pIC50) is 7.91 and the “ratio IC50 hV2/hV1a” value is on record as 3.9. Also, the negative logarithm of the IC50 (pIC50) in test [2] was 7.31.

Consider `CC1(CNC(=O)c2ccccc2-n2cnc(Cn3nc(-c4ccc(Cl)cc4)n(C[C@H](O)C(F)(F)F)c3=O)n2)COC1` [Example 188, 2-[3-({3-(4-Chlorophenyl)-5-oxo-4-[(2S)-3,3,3-trifluoro-2-hydroxypropyl]-4,5-dihydro-1H-1,2,4-triazol-1-yl}ylmethyl)-1H-1,2,4-triazol-1-yl]-N-[(3-methyloxetan-3-yl)methyl]benzamide], for which the figures for the negative logarithm of the IC50 (pIC50) in test [1] and in test [2] were 8.17 and 6.25, respectively. In addition, the “ratio IC50 hV2/hV1a” value in test [1] was determined as 83.2.
